In brackets after ≈: the same amount, converted by molar mass.
What was measured:
[1] = Cytotoxicity against human HepG2 cells assessed as inhibition of cell growth incubated for 48 hrs by CellTiter-Glo luminescence assay; format: toxicity, cell-based
Plasmodium falciparum [2] = assay: Antiplasmodial activity against asexual blood stage of Plasmodium falciparum 3D7 assessed as inhibition of parasite growth incubated for 72 hrs by LDH assay; format: functional, organism-based; conditions: 3D7, 72 h
[3] = Intrinsic clearance in human liver microsomes at 1 uM measured for 60 mins by LC-MS/MS analysis; format: ADME, Microsome; conditions: read-out: CLH
[4] = Intrinsic clearance in rat hepatocytes at 1 uM measured per million cells for 90 mins by LC-MS/MS analysis; format: ADME, cell-based, Hepatocyte; conditions: read-out: CLH
[5] = Lipophilicity, elogD of the compound in 1-Octanol/PBS at pH 7.4 at 7.5 uM incubated for 2 hrs by miniaturized shake flask method; format: physicochemical
[6] = Aqueous solubility of the compound in PBS buffer at pH 7.4 at 200 uM incubated for 2 hrs under shaking condition by miniaturized shake flask method; format: physicochemical
Plasmodium falciparum [7] = assay: Antiplasmodial activity against multidrug-resistant Plasmodium falciparum Dd2 harboring CARL-I1139K mutant infected in erythrocytes assessed as inhibition of parasite growth incubated for 72 hrs by [3H]hypoxanthine incorporation based microbeta counting analysis; format: functional, organism-based; conditions: Dd2, Erythrocyte
Plasmodium falciparum [8] = assay: Antiplasmodial activity against Plasmodium falciparum Dd2 infected in erythrocytes assessed as inhibition of parasite growth incubated for 72 hrs by [3H]hypoxanthine incorporation based microbeta counting analysis; format: functional, organism-based; conditions: Dd2, Erythrocyte
Plasmodium falciparum [9] = assay: Antiplasmodial activity against ring stage of Plasmodium falciparum 3D7 expressing ABCI3-HAreg assessed as inhibition of parasite proliferation incubated for 72 hrs in presence of ABCI3 inhibitor, GlcN by SYBR dye based flow cytometry; format: functional, organism-based; conditions: 3D7, 72 h
Plasmodium falciparum [10] = assay: Antiplasmodial activity against multidrug-resistant Plasmodium falciparum Dd2 harboring PI4K-S743F mutant infected in erythrocytes assessed as inhibition of parasite growth incubated for 72 hrs by [3H]hypoxanthine incorporation based microbeta counting analysis; format: functional, organism-based; conditions: Dd2, Erythrocyte
Plasmodium falciparum [11] = assay: Antiplasmodial activity against multidrug-resistant Plasmodium falciparum Dd2 harboring DHODH-C276F mutant infected in erythrocytes assessed as inhibition of parasite growth incubated for 72 hrs by [3H]hypoxanthine incorporation based microbeta counting analysis; format: functional, organism-based; conditions: Dd2, Erythrocyte
Plasmodium falciparum [12] = assay: Antiplasmodial activity against multidrig-resistant Plasmodium falciparum Dd2 harboring eEF2Y-I86N mutant infected in erythrocytes assessed as inhibition of parasite growth incubated for 72 hrs by [3H]hypoxanthine incorporation based microbeta counting analysis; format: functional, organism-based; conditions: Dd2, Erythrocyte

Structure (SMILES)	CC50 at 48 h [1] [nM]	EC50 (Plasmodium falciparum [2]) [nM]	other results
CC(C)(C)n1nc(-c2ccccc2)c2c(C(=O)N3CCOc4ccccc43)cc(C3CC3)nc21	> 40000	2180	
Cc1nn(C(C)(C)C)c2nc(C3CC3)cc(C(=O)N3CCOCC3)c12	> 40000	2330	
Cc1nn(C(C)(C)C)c2nc(C3CC3)cc(C(=O)N3CCN(C)CC3)c12	> 40000	545	
Cc1nn(C(C)(C)C)c2nc(C3CC3)cc(C(=O)N3CCOc4cccnc43)c12	> 10000	856	
Cc1n[nH]c2nc(C3CC3)cc(C(=O)N3CCOc4ccccc43)c12		> 10000	
CC(C)(C)n1ncc2c(C(=O)N3CCOc4ccccc43)cc(C3CC3)nc21	> 40000	490	
Cc1nn(C(C)(C)C)c2nc(-c3ccccc3)cc(C(=O)N3CCOc4ccccc43)c12	> 40000	453	
Cc1nn(C(C)(C)C)c2nc(C3CC3)cc(C(=O)N3CCOc4ncccc43)c12	> 10000	2500	
Cc1nn(C(C)C)c2nc(C3CC3)cc(C(=O)N3CCOc4ccccc43)c12	> 40000	310	microsomal CLint at 1 µM [3]: 424 µL/min/mg; hepatocyte CLint at 1 µM [4]: > 92 µL/min/1e6 cells; logD at 2 h, 7.5 µM [5]: 4.5; solubility thermodynamic at 2 h, 200 µM [6]: 10 µM (≈ 3.76 µg/mL)
CCc1cc(C(=O)N2CCOc3ccccc32)c2c(C)nn(C(C)(C)C)c2n1	> 40000	843	
CC1(C)c2nc(-c3ccc(F)cc3)c(Nc3ccc(F)cc3)n2CCN1C(=O)CN [GANAPLACIDE]			EC50 (Plasmodium falciparum [7]): 1920 nM; EC50 (Plasmodium falciparum [8]): 17 nM
Cc1nn(C(C)(C)C)c2nc(C3CC3)cc(C(=O)N3CCNc4ccccc43)c12	> 40000	181	microsomal CLint at 1 µM [3]: 471 µL/min/mg; hepatocyte CLint at 1 µM [4]: 123 µL/min/1e6 cells; logD at 2 h, 7.5 µM [5]: 4.8; solubility thermodynamic at 2 h, 200 µM [6]: 3.5 µM (≈ 1.36 µg/mL)
CCN(CC)CCCC(C)Nc1ccnc2cc(Cl)ccc12 (stereo unspecified) [CHLOROQUINE]			EC50 (Plasmodium falciparum [9]): 11.3 nM
CS(=O)(=O)c1ccc(-c2cnc(N)c(-c3ccc(C(F)(F)F)nc3)c2)cc1 [MMV-048]			EC50 (Plasmodium falciparum [8]): 12 nM; EC50 (Plasmodium falciparum [10]): 90 nM
Cc1nn(-c2ccccc2)c2nc(C3CC3)cc(C(=O)N3CCOc4ccccc43)c12	> 40000	1120	
CC(C)(C)n1nc(Br)c2c(C(=O)N3CCOc4ccccc43)cc(C3CC3)nc21	> 40000	155	
Cc1nn(C(C)(C)C)c2nc(C3CC3)cc(C(=O)Nc3ccccc3)c12	> 10000	3850	
CC(C)(C)n1nc(C2CC2)c2c(C(=O)N3CCOc4ccccc43)cc(C3CC3)nc21	> 10000	79	
Cc1cc(C)c(NC(=O)c2cc(C3CC3)nc3c2c(C)nn3C(C)(C)C)c(Cl)c1	> 40000	1130	
COc1ccccc1NC(=O)c1cc(C2CC2)nc2c1c(C)nn2C(C)(C)C	> 40000	2300	
COc1ccccc1N(C)C(=O)c1cc(C2CC2)nc2c1c(C)nn2C(C)(C)C	> 10000	2360	
Cc1cc(C(=O)N2CCOc3ccccc32)c2c(C)nn(C(C)(C)C)c2n1	> 40000	5630	
Cc1nn(C(C)(C)C)c2nc(C3CC3)cc(C(=O)N3CCCc4ccccc43)c12	> 40000	164	microsomal CLint at 1 µM [3]: 277 µL/min/mg; hepatocyte CLint at 1 µM [4]: 45 µL/min/1e6 cells; logD at 2 h, 7.5 µM [5]: 5.9; solubility thermodynamic at 2 h, 200 µM [6]: 2.8 µM (≈ 1.09 µg/mL)

Structure (SMILES)	CC50 at 48 h [1] [nM]	EC50 (Plasmodium falciparum [2]) [nM]	other results
CC1CN(C(=O)c2cc(-c3ccccc3)nc3c2cnn3C(C)C)CCO1 (stereo unspecified)	> 40000	1000	
COc1ccccc1CNC(=O)c1cc(C2CC2)nc2c1cnn2C(C)C	> 40000	680	
CC(C)c1nn(C(C)(C)C)c2nc(C3CC3)cc(C(=O)N3CCOc4ccccc43)c12	> 40000	580	
Cc1nn(C(C)(C)C)c2nc(C3CC3)cc(C(=O)N3CCOc4cc(F)ccc43)c12	> 10000	1050	microsomal CLint at 1 µM [3]: 160 µL/min/mg; hepatocyte CLint at 1 µM [4]: 23 µL/min/1e6 cells; logD at 2 h, 7.5 µM [5]: 5.9; solubility thermodynamic at 2 h, 200 µM [6]: < 2.5 µM
Cc1cc(Nc2ccc(S(F)(F)(F)(F)F)cc2)n2nc(C(C)(F)F)nc2n1 [DSM-265]			EC50 (Plasmodium falciparum [11]): 100 nM; EC50 (Plasmodium falciparum [8]): 6 nM
O=C(NCCN1CCCC1)c1cc(-c2ccc(CN3CCOCC3)cc2)nc2ccc(F)cc12 [CABAMIQUINE]			EC50 (Plasmodium falciparum [8]): 1 nM; EC50 (Plasmodium falciparum [12]): 850 nM
Cc1nn(C(C)(C)C)c2nc(C3CC3)cc(C(=O)Nc3nnc4ccccn34)c12		> 10000	
COc1ccccc1CNC(=O)c1cc(C2CC2)nc2c1c(C)nn2C(C)(C)C	> 40000	463	
Cc1cc(C)c(NC(=O)c2cc(C)nc3c2c(C)nn3C)c(Cl)c1	> 40000	170	
Cc1nn(C(C)C)c2nc(C(C)C)cc(C(=O)Nc3nnc4ccccn34)c12		860	
Cc1nn(C(C)(C)C)c2nc(C3CC3)cc(C(=O)N3CCOc4cnccc43)c12		2070	
Cc1nn(C)c2nc(C3CC3)cc(C(=O)N3CCOc4ccccc43)c12		> 10000	
CCc1nn(C(C)(C)C)c2nc(C3CC3)cc(C(=O)N3CCOc4ccccc43)c12	> 10000	288	
COc1cc(C(=O)N2CCOc3ccccc32)c2c(C)nn(C(C)(C)C)c2n1	> 40000	1040	
Cc1nn(C(C)(C)C)c2nc(C3CC3)cc(C(=O)N3CCOc4ccc(F)cc43)c12	9670	130	microsomal CLint at 1 µM [3]: 100 µL/min/mg; hepatocyte CLint at 1 µM [4]: 22 µL/min/1e6 cells; logD at 2 h, 7.5 µM [5]: 5.8; solubility thermodynamic at 2 h, 200 µM [6]: 2.8 µM (≈ 1.14 µg/mL)
Cc1nn(C(C)(C)C)c2nc(C3CC3)cc(C(=O)N3CCc4ccccc43)c12	> 40000	2480	
Cc1nn(C(C)(C)C)c2nc(C3CC3)cc(C(=O)N3CCCCC3)c12	> 40000	635	
Cc1nn(C(C)(C)C)c2nc(C(C)C)cc(C(=O)N3CCOc4ccccc43)c12	> 40000	740	
Cc1nn(C(C)(C)C)c2nc(C3CC3)cc(C(=O)N3CCN(C)c4ccccc43)c12	> 40000	257	microsomal CLint at 1 µM [3]: 387 µL/min/mg; hepatocyte CLint at 1 µM [4]: 65 µL/min/1e6 cells; logD at 2 h, 7.5 µM [5]: 5.4; solubility thermodynamic at 2 h, 200 µM [6]: 3 µM (≈ 1.21 µg/mL)
CC(C)(C)n1nc(Cl)c2c(C(=O)N3CCOc4ccccc43)cc(C3CC3)nc21	> 40000	260	microsomal CLint at 1 µM [3]: 155 µL/min/mg; hepatocyte CLint at 1 µM [4]: 34 µL/min/1e6 cells; logD at 2 h, 7.5 µM [5]: > 5.9; solubility thermodynamic at 2 h, 200 µM [6]: < 2.5 µM
COc1nn(C(C)C)c2nc(C3CC3)cc(C(=O)N3CCOc4ccncc43)c12	28700	15	microsomal CLint at 1 µM [3]: > 462 µL/min/mg; hepatocyte CLint at 1 µM [4]: > 92 µL/min/1e6 cells; logD at 2 h, 7.5 µM [5]: 3.7; solubility thermodynamic at 2 h, 200 µM [6]: 161 µM (≈ 63.3 µg/mL)
COc1nn(C(C)(C)C)c2nc(C3CC3)cc(C(=O)N3CCOc4ccccc43)c12	> 40000	123	microsomal CLint at 1 µM [3]: 300 µL/min/mg; hepatocyte CLint at 1 µM [4]: 19 µL/min/1e6 cells; logD at 2 h, 7.5 µM [5]: > 6.4; solubility thermodynamic at 2 h, 200 µM [6]: < 2.5 µM
COc1nn(C(C)(C)C)c2nc(C3CC3)cc(C(=O)N3CCOc4ccncc43)c12	7260	5	microsomal CLint at 1 µM [3]: 423 µL/min/mg; hepatocyte CLint at 1 µM [4]: 87 µL/min/1e6 cells; logD at 2 h, 7.5 µM [5]: 5.1; solubility thermodynamic at 2 h, 200 µM [6]: 19 µM (≈ 7.74 µg/mL)

— ChEMBL document CHEMBL5608197, “Optimization of pyrazolopyridine 4-carboxamides with potent antimalarial activity for which resistance is associated with the P. falciparum transporter ABCI3” (Eur J Med Chem, 2024)
